Some test systems named below: RXF 393 renal; A549 NSCLC; COLO 205 colon; NCI-H522 lung; MDA-MB-435; MOLT-4 leukemia; MDA-MB-231 breast; HCT-15 colon; ACHN renal; OVCAR-4 ovarian.
Assay in all cases: DTP human tumour cell line panel, 48 h

Values joined by “and” are separate entries in the source; they are usually repeats but may differ in a detail not shown here. Equal entries are not always repeated.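 Exposure lasted 48 hours, with cells grown in 96-well plates and compounds tested at five concentrations. GI50 marks 50% less growth. TGI denotes the concentration required for complete inhibition of growth.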

Consider `Nc1c(S(=O)(=O)O)cc(Nc2cccc(S(=O)(=O)/C=C/S(=O)(=O)O)c2)c2c1C(=O)c1ccccc1C2=O`, for which the TGI in the assay with RXF 393 renal, in the assay on A549 NSCLC, with COLO 205 colon, in the assay on NCI-H522 lung, in the assay on MDA-MB-435 and with MOLT-4 leukemia was more than 100 µM in each case. Moreover, the TGI in the assay on MDA-MB-231 breast, in the assay on HCT-15 colon, in the assay with ACHN renal and with OVCAR-4 ovarian was more than 100 µM each time.
With `COC1/C=C/C(C)C(C(C)C(OC)C(C)CCC(=O)C(C)C(C/C=C/N(C)C=O)OC)OC(=O)/C=C/C=C(\C)CC(OC)C(OC)C2=CC(=O)O[C@@H](C(C)C(OC)CC(OC)/C=C/C(C)C(O)C1)[C@H]2O` (stereo partly drawn), the TGI in the assay with RXF 393 renal was 0.263 µM; in the assay on A549 NSCLC, 0.781 µM; with NCI-H522 lung it was 0.286 µM; in the assay with MDA-MB-435, 0.977 µM; in the assay on MOLT-4 leukemia, more than 100 µM; in the assay on MDA-MB-231 breast it was 0.247 µM. The TGI stood at 0.329 µM in the assay on HCT-15 colon, 0.594 µM in the assay on ACHN renal and 0.365 µM in the assay on OVCAR-4 ovarian.
With `Nc1ccc(-n2c(=O)oc3ccc(Cl)cc3c2=O)c(Cl)c1`, the GI50 with RXF 393 renal is 0.0838 µM; in the assay with A549 NSCLC, 0.234 µM; in the assay on COLO 205 colon it was 2.97 µM; in the assay with NCI-H522 lung, 0.0741 µM; in the assay on MDA-MB-435, 0.113 µM; in the assay on MOLT-4 leukemia, 0.368 µM. In addition, the GI50 with MDA-MB-231 breast is 0.111 µM; in the assay on HCT-15 colon it was 0.138 µM; with ACHN renal it was 0.169 µM; in the assay with OVCAR-4 ovarian, 0.111 µM. Besides, the TGI in the assay on RXF 393 renal was 0.293 µM; in the assay on A549 NSCLC, more than 38.7 µM; in the assay on COLO 205 colon it was 8.26 µM; with NCI-H522 lung, 0.588 µM; in the assay on MDA-MB-435, 0.883 µM; in the assay on MOLT-4 leukemia it was 2.32 µM. Moreover, the TGI in the assay on MDA-MB-231 breast is 1.68 µM; with HCT-15 colon, 21.6 µM; in the assay with ACHN renal, 4.41 µM; with OVCAR-4 ovarian, more than 94.8 µM.
On to `CCS(=O)(=O)c1c2cc(OC)ccc2nc2ccc(OC)cc12`, for which the TGI in the assay with RXF 393 renal, in the assay with A549 NSCLC, in the assay with COLO 205 colon, with NCI-H522 lung, in the assay with MDA-MB-435 and in the assay with MOLT-4 leukemia was more than 100 µM each time. For the same compound, the TGI in the assay with MDA-MB-231 breast, in the assay with HCT-15 colon, in the assay with ACHN renal and in the assay with OVCAR-4 ovarian was more than 100 µM throughout.
As for `CC(=O)NC1=CC(=O)c2cc(C)cc(O)c2C1=O`, the TGI in the assay with RXF 393 renal came out at 26.8 µM; with A549 NSCLC it was 19 µM; in the assay on COLO 205 colon it was 13.3 µM; in the assay with NCI-H522 lung it was 20.2 µM; in the assay on MDA-MB-435 it was 1.96 µM; in the assay with MOLT-4 leukemia it was 24.2 µM. Moreover, the TGI worked out at 24.7 µM in the assay on MDA-MB-231 breast, 13.8 µM in the assay on HCT-15 colon, 23 µM in the assay with ACHN renal and 20.4 µM in the assay with OVCAR-4 ovarian.
As to `CCOc1cc(C2SCC(=O)N2c2nc3cc4sc(N5C(=O)CSC5c5ccc(O)c(OCC)c5)nc4cc3s2)ccc1O` (stereo not drawn), the TGI in the assay on RXF 393 renal, with A549 NSCLC, with COLO 205 colon, in the assay on NCI-H522 lung, with MDA-MB-435 and in the assay on MOLT-4 leukemia was more than 100 µM each time. In addition, the TGI in the assay on MDA-MB-231 breast, in the assay with HCT-15 colon, in the assay on ACHN renal and in the assay with OVCAR-4 ovarian was more than 100 µM each time.
For the compound `CC1CCC2(CC1)N=C1CCC(C)CC1C1(CCC(C)CC1)N2` (stereo not drawn), the total growth inhibition concentration (TGI) was more than 100 µM in the assay with RXF 393 renal; more than 100 µM with A549 NSCLC; more than 100 µM in the assay on COLO 205 colon; more than 100 µM with NCI-H522 lung; more than 100 µM in the assay on MDA-MB-435; 95.3 µM in the assay with MOLT-4 leukemia. The TGI in the assay with MDA-MB-231 breast, in the assay with HCT-15 colon, in the assay with ACHN renal and with OVCAR-4 ovarian was more than 100 µM throughout.
As for `COc1cc2c(cc1Cl)n([O-])c(C#N)c(N1CCN(c3ccc([N+](=O)[O-])cc3)CC1)[n+]2=O`, the TGI with RXF 393 renal was more than 100 µM; with A549 NSCLC it was more than 100 µM; in the assay on COLO 205 colon it was more than 100 µM; in the assay on NCI-H522 lung, 41.6 µM; with MDA-MB-435 it was more than 100 µM; in the assay with MOLT-4 leukemia it was more than 68 µM. Besides, the TGI was more than 100 µM in the assay with MDA-MB-231 breast, more than 100 µM with HCT-15 colon, more than 77.2 µM with ACHN renal and more than 100 µM in the assay with OVCAR-4 ovarian.
`CC(C)C(C/C=C1\CC(CO)(COC(=O)CC(C(C)C)C(C)C)OC1=O)C(C)C` (stereo not drawn): the TGI in the assay with RXF 393 renal turned out to be 28.4 µM; in the assay with A549 NSCLC, 18.8 µM; in the assay with COLO 205 colon, 9.75 µM; in the assay with NCI-H522 lung it was 27.6 µM; in the assay on MDA-MB-435 it was 19.7 µM; in the assay on MOLT-4 leukemia, 21.4 µM. The TGI in the assay with MDA-MB-231 breast came to 27.2 µM; with HCT-15 colon, 34.9 µM; in the assay with ACHN renal it was 22.5 µM; in the assay with OVCAR-4 ovarian it was 33 µM.
For `COc1ccc(C2=CN3CCC[C@H]3C=C2c2cc(O)c(OC)c(OC)c2)cc1OC`, the TGI was 0.0288 µM in the assay with RXF 393 renal; 0.274 µM and 0.172 µM with A549 NSCLC; 0.0256 µM in the assay on COLO 205 colon; 0.026 µM with NCI-H522 lung; 0.0165 µM in the assay on MDA-MB-435; 0.183 µM and 0.393 µM in the assay on MOLT-4 leukemia. The TGI in the assay with MDA-MB-231 breast was determined as 0.15 µM; in the assay on ACHN renal, 0.0959 µM; with OVCAR-4 ovarian it was 0.0374 µM.
`O=C1C[C@H](c2ccccc2)C2(C(=O)c3ccccc3C2=O)[C@H](c2ccccc2)C1`: the TGI in the assay with RXF 393 renal is 50.5 µM; in the assay on COLO 205 colon, more than 100 µM; with NCI-H522 lung it was more than 100 µM; in the assay on MDA-MB-435 it was more than 100 µM; in the assay on MOLT-4 leukemia, more than 100 µM; in the assay with MDA-MB-231 breast, 80.2 µM. Further, the TGI in the assay on HCT-15 colon and in the assay with OVCAR-4 ovarian was more than 100 µM throughout.
Turning to `NC(=O)CS(=O)CC(N)C(=O)O` (stereo not drawn), the TGI in the assay with RXF 393 renal, in the assay on A549 NSCLC, in the assay on NCI-H522 lung, in the assay on MDA-MB-435, with MOLT-4 leukemia and in the assay with MDA-MB-231 breast was more than 100 µM each time. For the same compound, the TGI with HCT-15 colon, with ACHN renal and in the assay on OVCAR-4 ovarian was more than 100 µM throughout.
Turning to `CC(C)C1=CC23CCC4C(C)(C(=O)O)CCCC4(C)C2CC1C(C(=O)O)C3C(=O)O` (stereo not drawn), the TGI in the assay with RXF 393 renal, in the assay on A549 NSCLC, in the assay with NCI-H522 lung, in the assay with MDA-MB-435, in the assay on MOLT-4 leukemia and in the assay on MDA-MB-231 breast was more than 100 µM throughout. The TGI in the assay with HCT-15 colon, in the assay with ACHN renal and in the assay with OVCAR-4 ovarian was more than 100 µM throughout.
Take `COc1cc(CNc2nc3cc(C(F)(F)F)ccc3nc2C)cc(OC)c1OC`: the TGI was 44.7 µM with RXF 393 renal; more than 100 µM in the assay with A549 NSCLC; 30.2 µM with COLO 205 colon; 48.5 µM in the assay on NCI-H522 lung; 55.5 µM in the assay on MDA-MB-435; 50.7 µM with MOLT-4 leukemia. Also, the TGI in the assay on MDA-MB-231 breast turned out to be 29.3 µM; in the assay on HCT-15 colon, 32.8 µM; in the assay on ACHN renal, 38.1 µM.
Take `O=C(c1ccccc1)N1C(=S)N(c2ccc([N+](=O)[O-])cc2)C(=Nc2ccccc2)C1=Nc1ccccc1`: the TGI in the assay with RXF 393 renal, in the assay with A549 NSCLC, in the assay on COLO 205 colon, in the assay with NCI-H522 lung, in the assay on MDA-MB-435 and with MOLT-4 leukemia was more than 100 µM each time. The TGI in the assay on MDA-MB-231 breast, in the assay with HCT-15 colon and with ACHN renal was more than 100 µM throughout.
For `O=C(NN1C(=O)C=CC1=O)c1ccccc1Nc1ccccc1C(=O)NN1C(=O)C=CC1=O`, the TGI in the assay with RXF 393 renal, with COLO 205 colon, in the assay on NCI-H522 lung, in the assay with MDA-MB-435, with MOLT-4 leukemia and with MDA-MB-231 breast was more than 100 µM each time. In addition, the TGI in the assay on HCT-15 colon, with ACHN renal and in the assay on OVCAR-4 ovarian was more than 100 µM throughout.
For the compound `COc1ccc(C2(C3c4cc(OC)c(OC)cc4CCN3C)SCCCS2)cc1O` (stereo not drawn), the TGI with RXF 393 renal, in the assay on A549 NSCLC, with COLO 205 colon, in the assay on NCI-H522 lung, with MDA-MB-435 and in the assay with MOLT-4 leukemia was more than 100 µM throughout. Also, the TGI in the assay on MDA-MB-231 breast, in the assay with HCT-15 colon and in the assay on OVCAR-4 ovarian was more than 100 µM each time.
Turning to `CCOC(=O)C(=Cn1c(=S)[nH]c2ccc([N+](=O)[O-])cc21)C(=O)OCC`, the TGI in the assay with RXF 393 renal, in the assay on A549 NSCLC, in the assay on COLO 205 colon, with NCI-H522 lung, in the assay with MDA-MB-435 and in the assay with MOLT-4 leukemia was more than 100 µM each time. In addition, the TGI with MDA-MB-231 breast, in the assay with ACHN renal and in the assay on OVCAR-4 ovarian was more than 100 µM in each case.
On to `CN(c1ccccc1Cl)S(=O)(=O)c1ccccc1[N+](=O)[O-]`, for which the TGI in the assay with RXF 393 renal is 90 µM; in the assay with A549 NSCLC it was more than 100 µM; in the assay on COLO 205 colon, more than 100 µM; in the assay with NCI-H522 lung, more than 100 µM; in the assay with MDA-MB-435, more than 100 µM; in the assay with MOLT-4 leukemia, more than 100 µM. The TGI in the assay on MDA-MB-231 breast, with HCT-15 colon and with OVCAR-4 ovarian was more than 100 µM throughout.

What is called TGI is the concentration giving total growth inhibition. A lower TGI goes with more potent growth arrest. Usually GI50 stands for the concentration that inhibits growth by half.
